The assay has as its system tubulin (αβ-tubulin; colchicine site in β-subunit). The assay is described as follows: [3H]colchicine competition on purified tubulin. In kind it is biochemical.

Structures are written as SMILES.

The IC50 is the midpoint of a concentration-inhibition curve. A lower IC50 goes with greater potency.

Molecule `O=c1cc(-c2ccccc2)[nH]c2ccc3c(ccn3CC3CC3)c12` [MG-2477, 3-cyclopropylmethyl-7-phenyl-3H-pyrrolo[3,2-f]quinolin-9(6H)-one] registered an IC50 of 900 nM.

`COc1ccc(/C=C\c2cc(OC)c(OC)c(OC)c2)cc1O` [combretastatin A-4] registered an IC50 of 1200 nM.

The values above are taken from paper PMC3234688 (2011).
